Tests used:
[1] = target: T1, E. coli LipB (EcLipB) (Escherichia coli, UniProt P60720, K135A/C169A); conditions: CoA:LipB 10:1, 50 mM Tris, 200 mM NaCl, pH 7.8, 283 K
[2] = target: E. coli LipB (EcLipB) (Escherichia coli, UniProt P60720, R71A); conditions: CoA:LipB 10:1, 50 mM Tris, 200 mM NaCl, pH 7.8, 283 K
[3] = target: E. coli LipB (EcLipB) (Escherichia coli, UniProt P60720, G72A/G73A); conditions: CoA:LipB 10:1 (STD, 283 K) or 8:1 (31P, 298 K), 50 mM Tris, 200 mM NaCl, pH 7.8
[4] = target: E. coli LipB (EcLipB) (Escherichia coli, UniProt P60720, C169A); conditions: CoA:LipB 8:1, 50 mM Tris, 200 mM NaCl, pH 7.8, 298 K
[5] = target: T1, E. coli LipB (EcLipB); conditions: 15N-labelled inactive double mutant, C8-CoA up to 1:2 molar ratio

## CC(C)(COP(=O)(O)OP(=O)(O)OC[C@H]1O[C@@H](n2cnc3c(N)ncnc32)[C@H](O)[C@@H]1OP(=O)(O)O)[C@@H](O)C(=O)NCCC(=O)NCCS [CoA]
[1]
  1H STD NMR: STD spectra for CoA in the presence of WT LipB, LipBK135A/C169A (catalytically inactive double mutant)
[2]
  1H STD NMR: visible in both the spectra, suggesting binding of CoA with the mutants
[3]
  1H STD NMR; 31P NMR: visible in both the spectra, suggesting binding of CoA with the mutants
[4]
  31P NMR: upfield change in chemical shift upon addition of WT LipB

## CCCCCCCC(=O)SCCNC(=O)CCNC(=O)[C@H](O)C(C)(C)COP(=O)(O)OP(=O)(O)OC[C@H]1O[C@@H](n2cnc3c(N)ncnc32)[C@H](O)[C@@H]1OP(=O)(O)O [C8-CoA]
[5]
  15N TROSY-HSQC NMR titration: The pattern of amide perturbations though confirmed that E. coli LipB binds C8-CoA
